According to article PMC9785542, “Discovery of 1-Benzhydryl-Piperazine-Based HDAC Inhibitors with Anti-Breast Cancer Activity: Synthesis, Molecular Modeling, In Vitro and In Vivo Biological Evaluation” (Pharmaceutics, 2022):
Values joined by “and” are separate entries in the source; they are usually repeats but may differ in a detail not shown here. Identical values can stand only once.

Legend:
MDA-MB-231 cells = assay: Matrigel invasion assay; type: cell-based, human; details: 24 h; 5 μM 8b, 10 μM 9b
Method: To determine MDA-MB-231 cell migration and invasion cell capacities, Corning® Costar® Transwell® cell culture inserts with 8.0 μm pore polycarbonate filters (Sigma Aldrich, CLS3464) and Corning™ BioCoat™ Matrigel™ Invasion Chamber with Corning Matrigel Matrix™ cell culture inserts (Thermo fisher scientific, Waltham, MA, USA) respectively were used. Briefly, 6 × 10^4 cells in 200 μL were seeded in the upper chamber and the bottom chamber was filled with 800 μL of medium. After 24 h under indicated treatments, the remaining cells in the upper chamber were gently removed with a cotton swab, moistened with medium, and the inserts were carefully washed twice with 37 °C warmed PBS. Then, attached cells at the bottom side of the membrane were fixed by immersing in ice cold methanol for 2 min and stained with 0.1% crystal violet for 15 min at room temperature. Stained cells were photographed and quantified using NIH ImageJ software.

[1] = Acute and developmental toxicity in zebrafish embryos; type: in vivo, Danio rerio; details: wild type (AB), zebrafish (Danio rerio), in vivo, other: exposure of embryos in E3 medium, evaluated at 120 hpf; for LC50: embryos treated at 6 hpf; for EC50: teratogenicity, cardiotoxicity, hepatotoxicity, treated at 6 hpf
Method: (§1) Embryos of wild type (AB) and transgenic Tg(fli1:EGFP) and Tg(-2.8fabp10a:EGFP) zebrafish (Danio rerio) lines were kindly provided by Dr. Ana Cvejić (Wellcome Trust Sanger Institute, Cambridge, UK) and raised to adult stage in a temperature- and light-controlled zebrafish facility at 28 °C and standard 14–10 h light–dark photoperiod. Adult fish were regularly fed with commercial dry food (SDS300 granular food; Special Diet Services, Essex, UK; and TetraMinTM flakes, Tetra, Melle, Germany) twice per day and Artemia nauplii daily. All experiments involving zebrafish were performed in compliance with the European directive 2010/63/EU and the ethical guidelines of the Guide for Care and Use of Laboratory Animals of the Institute of Molecular Genetics and Genetic Engineering, University of Belgrade.
(§2) Toxicity evaluation of the tested compounds in the zebrafish model was carried out following the general rules of the OECD Guidelines for the Testing of Chemicals (OECD, 2013, Test No. 236), and procedures described in the literature. Briefly, wild type (AB) zebrafish produced by pair-wise mating were collected, washed of debris, and distributed into 24-well plates containing 10 embryos/well and 1 mL of E3 medium (5 mM NaCl, 0.17 mM KCl, 0.33 mM CaCl2, and 0.33 mM MgSO4·7H2O in distilled water), and raised at 28 °C.
(§3) To assess acute (lethality), inner organ, and developmental (teratogenicity) toxicity, the embryos at the 6 h post-fertilization (hpf) stage were treated with six different concentrations of each tested compound (100, 50, 25, 12.5, 6.25, and 3.13 µM). Stock solutions of test substances were made in DMSO. Embryo water and DMSO (0.25%) were used as negative and […] controls, respectively. The experiment was performed three times using 20 embryos per concentration. Treated embryos were inspected for 22 toxicological parameters (Table S2) every day by 120 hpf upon a stereomicroscope (Carl Zeiss™ Stemi 508 doc Stereomicroscope, Jena, Germany). Dead embryos were discarded every 24 h. At 120 hpf, embryos were anesthetized by addition of 0.1% (w/v) tricaine solution (Sigma-Aldrich, St. Louis, MO, USA), photographed, and killed by freezing at −20 °C for ≥24 h.

[2] = test system: zebrafish (Danio rerio) embryos; assay: as above; type: in vivo; details: 50 µM
Method: as §1, §2, §3

[3] = molecular target: T1, Human recombinant N-ter-GST-HDAC-6 (Homo sapiens, UniProt Q9UBN7); assay: HDAC-Glo I/II bioluminogenic enzyme assay, HDAC6; type: biochemical; design: GST (N); purchased BPS Bioscience 50006; details: for % HDAC6 Inhibition at 5 μM / inhibition at 5 µM: mean ± standard error of triplicate; for IC50: mean ± SD of three independent experiments, read-out: HDAC Inhibition, IC50 ± SD, HDAC6; for Selectivity Ratio HDAC1/6 / Selectivity Ratio HDAC3/6 / Selectivity Ratio HDAC8/6: ratio of IC50 values
T1 sequence (Q9UBN7 1-1215): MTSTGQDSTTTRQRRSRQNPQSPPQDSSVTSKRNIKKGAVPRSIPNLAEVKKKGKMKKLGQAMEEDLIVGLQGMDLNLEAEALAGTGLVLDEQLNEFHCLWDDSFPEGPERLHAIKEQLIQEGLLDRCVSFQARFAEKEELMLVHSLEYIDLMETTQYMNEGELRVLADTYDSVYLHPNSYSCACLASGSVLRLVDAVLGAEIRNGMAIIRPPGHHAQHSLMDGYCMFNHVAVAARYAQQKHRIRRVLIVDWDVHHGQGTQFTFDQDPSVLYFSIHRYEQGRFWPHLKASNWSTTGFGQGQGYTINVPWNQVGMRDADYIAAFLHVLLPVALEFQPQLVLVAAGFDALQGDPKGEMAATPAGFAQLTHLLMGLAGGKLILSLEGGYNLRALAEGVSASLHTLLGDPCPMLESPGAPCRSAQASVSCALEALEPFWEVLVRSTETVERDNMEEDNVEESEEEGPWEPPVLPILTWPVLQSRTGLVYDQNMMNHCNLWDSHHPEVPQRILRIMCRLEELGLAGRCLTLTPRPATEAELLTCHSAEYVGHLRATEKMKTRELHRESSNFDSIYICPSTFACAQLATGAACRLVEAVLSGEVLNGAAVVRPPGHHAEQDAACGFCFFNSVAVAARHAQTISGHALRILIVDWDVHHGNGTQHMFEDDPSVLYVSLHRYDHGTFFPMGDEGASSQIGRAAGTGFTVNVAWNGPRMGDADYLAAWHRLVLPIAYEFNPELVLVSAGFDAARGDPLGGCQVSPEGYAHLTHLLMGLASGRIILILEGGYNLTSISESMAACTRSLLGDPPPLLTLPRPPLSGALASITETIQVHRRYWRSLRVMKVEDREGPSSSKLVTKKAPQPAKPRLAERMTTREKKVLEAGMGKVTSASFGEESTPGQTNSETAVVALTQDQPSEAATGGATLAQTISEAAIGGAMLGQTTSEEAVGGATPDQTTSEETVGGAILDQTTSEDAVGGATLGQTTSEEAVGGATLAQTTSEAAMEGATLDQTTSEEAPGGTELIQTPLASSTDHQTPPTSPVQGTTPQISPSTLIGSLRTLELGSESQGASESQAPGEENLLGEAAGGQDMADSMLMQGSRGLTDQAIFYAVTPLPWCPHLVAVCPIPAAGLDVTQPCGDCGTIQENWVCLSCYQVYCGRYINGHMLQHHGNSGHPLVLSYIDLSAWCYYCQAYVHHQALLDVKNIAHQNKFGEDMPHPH

SMILES | anti-invasive property (% compared to control) (MDA-MB-231 cells) | LC50 [1] [µM] | EC50 [1] [µM] | embryos with teratogenicity, cardio- or hepatotoxicity [2] | % HDAC6 Inhibition at 5 μM [3] [%] | inhibition at 5 µM [3] [%] | IC50 [3] [µM] | Selectivity Ratio HDAC1/6 [3] | Selectivity Ratio HDAC3/6 [3] | Selectivity Ratio HDAC8/6 [3]
O=C(CCCCCCCN1CCN(C(c2ccccc2)c2ccccc2)CC1)NO [Compound 8b, 8-(4-(diphenylmethyl)-piperazin-1-yl)-N-hydroxyoctanamide] | 59% | > 100 | 79.5 | none | 97.7 ± 0.2 | > 90 | 0.124 ± 0.013 | 3.3 | 1.7 | 2
O=C(NO)c1ccc(CN2CCN(C(c3ccccc3)c3ccccc3)CC2)cc1 [Compound 9b, 4-(4-(diphenylmethyl)-piperazin-1-ylmethyl)-N-hydroxy-benzamide] | did not reduce | > 100 | 53.8 | 32% | 96.9 ± 0.3 | > 90 | 0.031 ± 0.004 | 47.5 | 112 and 111.8 | 23
O=C(CCCCCCN1CCN(C(c2ccccc2)c2ccccc2)CC1)NO [Compound 7b, 7-(4-(diphenylmethyl)-piperazin-1-yl)-N-hydroxyheptanamide] | – | – | – | – | 97.1 ± 0.8 | > 90 | 0.096 ± 0.008 | 6.4 | 2.8 | 3.6
